The structures appear in SMILES notation.

One experiment addresses AM2 S31N (serine→asparagine mutation at residue 31 in the M2 protein) (Influenza A virus, UniProt P0DOF5, S31N). Format: cell-based, influenza virus A/Udorn/72.
Details: not given
`CC(C)(C)c1nc(CNC23CC4CC(CC(C4)C2)C3)no1` [Example 103a, N-((5-(tert-butyl)-1,2,4-oxadiazol-3-yl)methyl)adamantan-1-amine]: the “S31N OOcyte Inhibition at 100 uM (%)” value is “A (key: (A)=31-95%; (B)=0-30%)”.
`c1cn(-c2ccc(CNC34CC5CC(CC(C5)C3)C4)cc2)cn1` [Example 36a, N-(4-(1H-imidazol-1-yl)benzyl)adamantan-1-amine]: the “S31N OOcyte Inhibition at 100 uM (%)” value turned out to be 26.9%.
On to `c1csc(C2=NOC(CNC34CC5CC(CC(C5)C3)C4)C2)c1` (stereo not drawn) [Example 168a, N-((3-(thiophen-2-yl)-4,5-dihydroisoxazol-5-yl)methyl)adamantan-1-amine], for which the “S31N OOcyte Inhibition at 100 uM (%)” value is on record as “A (key: (A)=31-95%; (B)=0-30%)”.
With `Clc1ccc(-c2cc(CNC34CC5CC(CC(C5)C3)C4)no2)cc1` [Example 119a, N-((5-(4-chlorophenyl)isoxazol-3-yl)methyl)adamantan-1-amine], the “S31N OOcyte Inhibition at 100 uM (%)” value is “A (key: (A)=31-95%; (B)=0-30%)”.
In the case of `CC(C)c1csc(CNC23CC4CC(CC(C4)C2)C3)n1` [Example 84a, N-((4-isopropylthiazol-2-yl)methyl)adamantan-1-amine], the “S31N OOcyte Inhibition at 100 uM (%)” value was “B (key: (A)=31-95%; (B)=0-30%)”.
Consider `Cc1ccc(-c2cc(CNC34CC5CC(CC(C5)C3)C4)no2)cc1` [Example 120a, N-((5-(p-tolyl)isoxazol-3-yl)methyl)adamantan-1-amine], for which the “S31N OOcyte Inhibition at 100 uM (%)” value is “A (key: (A)=31-95%; (B)=0-30%)”.
The same measure, in the same setting: as for `FC(F)(F)c1ccc(-c2nc(CNC34CC5CC(CC(C5)C3)C4)no2)cc1` [Example 129a, N-((5-(4-(trifluoromethyl)phenyl)-1,2,4-oxadiazol-3-yl)methyl)adamantan-1-amine], the entry is “A (key: (A)=31-95%; (B)=0-30%)”.
With `c1c[nH]c(CNC23CC4CC(CC(C4)C2)C3)c1` [Example 72a, Adamantan-1-yl-(1H-pyrrol-2-ylmethyl)-amine], the “S31N OOcyte Inhibition at 100 uM (%)” value is reported as “B (key: (A)=31-95%; (B)=0-30%)”.
With `c1cc(C2CC2)sc1CNC12CC3CC(CC(C3)C1)C2` [Example 108a, N-((5-cyclopropylthiophen-2-yl)methyl)adamantan-1-amine], the “S31N OOcyte Inhibition at 100 uM (%)” value is listed as “A (key: (A)=31-95%; (B)=0-30%)”.
Take `c1ccc(-c2ncc(CNC34CC5CC(CC(C5)C3)C4)cn2)nc1` [Example 64a, N-((2-(pyridin-2-yl)pyrimidin-5-yl)methyl)adamantan-1-amine]: the “S31N OOcyte Inhibition at 100 uM (%)” value is listed as “B (key: (A)=31-95%; (B)=0-30%)”.
Turning to `Cc1cccc2nc(CNC34CC5CC(CC(C5)C3)C4)[nH]c12` [Example 184a, Adamantan-1-yl-(7-methyl-1H-benzoimidazol-2-ylmethyl)-amine], the “S31N OOcyte Inhibition at 100 uM (%)” value is given as “A (key: (A)=31-95%; (B)=0-30%)”.
On the same count and under the same terms, as for `C1CCC(c2nc(CNC34CC5CC(CC(C5)C3)C4)no2)C1` [Example 109a, N-((5-cyclopentyl-1,2,4-oxadiazol-3-yl)methyl)adamantan-1-amine], the entry is “A (key: (A)=31-95%; (B)=0-30%)”; as for `Cc1ccc(CNC23CC4CC(CC(C4)C2)C3)o1` [Example 67a], “A (key: (A)=31-95%; (B)=0-30%)”; as for `c1csc(-c2cc(CNC34CC5CC(CC(C5)C3)C4)on2)c1` [Example 149a, N-((3-(thiophen-2-yl)isoxazol-5-yl)methyl)adamantan-1-amine], “A (key: (A)=31-95%; (B)=0-30%)”.
Same read-out and setting: as for `c1cncc(-c2noc(CNC34CC5CC(CC(C5)C3)C4)n2)c1` [Example 135a, Adamantan-1-yl-(3-pyridin-3-yl-[1,2,4]oxadiazol-5-ylmethyl)-amine], the entry is “A (key: (A)=31-95%; (B)=0-30%)”; as for `c1ccc(-c2nc(CNC34CC5CC(CC(C5)C3)C4)c[nH]2)cc1` [Example 114a, N-((2-phenyl-1H-imidazol-4-yl)methyl)adamantan-1-amine], “B (key: (A)=31-95%; (B)=0-30%)”.
`c1ccc(-c2noc(CNC34CC5CC(CC(C5)C3)C4)n2)cc1` [Example 123a, N-((3-phenyl-1,2,4-oxadiazol-5-yl)methyl)adamantan-1-amine]: the “S31N OOcyte Inhibition at 100 uM (%)” value was “A (key: (A)=31-95%; (B)=0-30%)”.
As for `Nc1ncc(CNC23CC4CC(CC(C4)C2)C3)s1` [Example 93a, 5-((adamantan-1-ylamino)methyl)thiazol-2-amine], the “S31N OOcyte Inhibition at 100 uM (%)” value is “B (key: (A)=31-95%; (B)=0-30%)”.
With `Cn1c(CNC23CC4CC(CC(C4)C2)C3)nc2ccccc21` [Example 180a, Adamantan-1-yl-(1-methyl-1H-benzoimidazol-2-ylmethyl)-amine], the “S31N OOcyte Inhibition at 100 uM (%)” value is “B (key: (A)=31-95%; (B)=0-30%)”.
For `CC(C)n1cc(CNC23CC4CC(CC(C4)C2)C3)cn1` [Example 85a, N-((1-isopropyl-1H-pyrazol-4-yl)methyl)adamantan-1-amine], the “S31N OOcyte Inhibition at 100 uM (%)” value is recorded as “B (key: (A)=31-95%; (B)=0-30%)”.
On to `FC(F)(F)c1cccc(-c2nc(CNC34CC5CC(CC(C5)C3)C4)no2)c1` [Example 125a, N-((5-(3-(trifluoromethyl)phenyl)-1,2,4-oxadiazol-3-yl)methyl)adamantan-1-amine], for which the “S31N OOcyte Inhibition at 100 uM (%)” value was “A (key: (A)=31-95%; (B)=0-30%)”.

The experiment is the same for the next values; noted with them: pH 5.5.
On to `Clc1ncc(CNC23CC4CC(CC(C4)C2)C3)s1` [Example 13b, N-((2-chlorothiazol-5-yl)methyl)adamantan-1-amine], for which the “S31N OOcyte Inhibition at 100 uM (%)” value is “B (key: (A)=31-95%; (B)=0-30%)”.
Regarding `Oc1cc(-c2ccsc2)ccc1CNC12CC3CC(CC(C3)C1)C2` [Example 8b], the “S31N OOcyte Inhibition at 100 uM (%)” value is reported as “A (key: (A)=31-95%; (B)=0-30%)”.
With `c1cc2[nH]c(CNC34CC5CC(CC(C5)C3)C4)cc2o1` [Example 78b, Adamantan-1-yl-(4H-furo[3,2-b]pyrrol-5-ylmethyl)-amine], the “S31N OOcyte Inhibition at 100 uM (%)” value is listed as “A (key: (A)=31-95%; (B)=0-30%)”.
Consider `Nc1ncc(CNC23CC4CC(CC(C4)C2)C3)s1` [Example 19b], for which the “S31N OOcyte Inhibition at 100 uM (%)” value was “B (key: (A)=31-95%; (B)=0-30%)”.
In the case of `COc1ccc(-c2cc(CNC34CC5CC(CC(C5)C3)C4)no2)c(OC)c1` [Example 41b, N-((5-(2,4-dimethoxyphenyl)isoxazol-3-yl)methyl)adamantan-1-amine], the “S31N OOcyte Inhibition at 100 uM (%)” value was “A (key: (A)=31-95%; (B)=0-30%)”.
For `c1nc(N2CCCC2)ncc1CNC12CC3CC(CC(C3)C1)C2` [Example 54b, N-((2-(pyrrolidin-1-yl)pyrimidin-5-yl)methyl)adamantan-1-amine], the “S31N OOcyte Inhibition at 100 uM (%)” value is “A (key: (A)=31-95%; (B)=0-30%)”.
Still for that read-out and setting: as for `C(#Cc1cccs1)CNC12CC3CC(CC(C3)C1)C2` [Example 88b], the entry is “A (key: (A)=31-95%; (B)=0-30%)”; as for `Cc1csc(CNC23CC4CC(CC(C4)C2)C3)n1` [Example 68b, Adamantan-1-yl-(4-methyl-thiazol-2-ylmethyl)-amine], “A (key: (A)=31-95%; (B)=0-30%)”.
For the molecule `CCSc1ncc(CNC23CC4CC(CC(C4)C2)C3)cn1` [Example 56b, N-((2-(ethylthio)pyrimidin-5-yl)methyl)adamantan-1-amine], the “S31N OOcyte Inhibition at 100 uM (%)” value was “A (key: (A)=31-95%; (B)=0-30%)”.
Turning to `CC(NC12CC3CC(CC(C3)C1)C2)c1ccc(-c2ccccc2)cc1` (stereo not drawn) [Example 4b, N-(1-([1,1′-biphenyl]-4-yl)ethyl)adamantan-1-amine], the “S31N OOcyte Inhibition at 100 uM (%)” value is “B (key: (A)=31-95%; (B)=0-30%)”.
On to `c1nc(N2CCOCC2)ncc1CNC12CC3CC(CC(C3)C1)C2` [Example 57b, N-((2-morpholinopyrimidin-5-yl)methyl)adamantan-1-amine], for which the “S31N OOcyte Inhibition at 100 uM (%)” value is “A (key: (A)=31-95%; (B)=0-30%)”.
With `Fc1cccc(F)c1-c1cc(CNC23CC4CC(CC(C4)C2)C3)no1` [Example 38b, N-((5-(2,6-difluorophenyl)isoxazol-3-yl)methyl)adamantan-1-amine], the “S31N OOcyte Inhibition at 100 uM (%)” value is recorded as “A (key: (A)=31-95%; (B)=0-30%)”.
`Cc1nnc(CNC23CC4CC(CC(C4)C2)C3)o1` [Example 17b, N-((5-methyl-1,3,4-oxadiazol-2-yl)methyl)adamantan-1-amine]: the “S31N OOcyte Inhibition at 100 uM (%)” value is “A (key: (A)=31-95%; (B)=0-30%)”.
Still for that read-out and setting: in the case of `Clc1nc(CNC23CC4CC(CC(C4)C2)C3)ns1` [Example 10b, N-((5-chloro-1,2,4-thiadiazol-3-yl)methyl)adamantan-1-amine] it was “A (key: (A)=31-95%; (B)=0-30%)”; in that of `CC(NC12CC3CC(CC(C3)C1)C2)c1ccc(C(C)(C)C)cc1` (stereo not drawn) [Example 3b, N-(1-(4-(tert-butyl)phenyl)ethyl)adamantan-1-amine], “B (key: (A)=31-95%; (B)=0-30%)”.
For `CSc1ccccc1-c1cnc(CNC23CC4CC(CC(C4)C2)C3)s1` [Example 76b, Adamantan-1-yl-[5-(2-methylsulfanyl-phenyl)-thiazol-2-ylmethyl]-amine], the “S31N OOcyte Inhibition at 100 uM (%)” value is reported as “A (key: (A)=31-95%; (B)=0-30%)”.
As for `c1cc2nc(CNC34CC5CC(CC(C5)C3)C4)sc2s1` [Example 77b, Adamantan-1-yl-thieno[3,2-d]thiazol-2-ylmethyl-amine], the “S31N OOcyte Inhibition at 100 uM (%)” value was “A (key: (A)=31-95%; (B)=0-30%)”.
For the molecule `CSc1ccc(-c2cc(CNC34CC5CC(CC3C5)C4)no2)cc1` [Example 90b, (2R,3as,5S,6as)-N-((5-(4-(methylthio)phenyl)isoxazol-3-yl)methyl)octahydro-2,5-methanopentalen-3a-amine], the “S31N OOcyte Inhibition at 100 uM (%)” value is recorded as “A (key: (A)=31-95%; (B)=0-30%)”.
As for `COc1ncc(CNC23CC4CC(CC(C4)C2)C3)c(OC)n1` [Example 64b, N-((2,4-dimethoxypyrimidin-5-yl)methyl)adamantan-1-amine], the “S31N OOcyte Inhibition at 100 uM (%)” value was “B (key: (A)=31-95%; (B)=0-30%)”.
`CCOC(=O)CN(C)c1ncc(CNC23CC4CC(CC(C4)C2)C3)cn1` [Example 60b, N-((2-methyl(ethylcarboxymethyl)aminopyrimidin-5-yl)methyl)adamantan-1-amine]: the “S31N OOcyte Inhibition at 100 uM (%)” value was “A (key: (A)=31-95%; (B)=0-30%)”.
In the case of `Clc1ccccc1-c1ccc(CNC23CC4CC(CC(C4)C2)C3)nc1` [Example 72b, Adamantan-1-yl-[5-(2-chloro-phenyl)-pyridin-2-ylmethyl]-amine], the “S31N OOcyte Inhibition at 100 uM (%)” value was “A (key: (A)=31-95%; (B)=0-30%)”.

Values taken from patent publication US9884832B2 (priority 2011, dated 2018).
